From publication PMC12771125, “Compounds Reducing Human Sperm Motility as Potential Nonhormonal Contraceptives Identified Using a High-Throughput Phenotypic Screening Platform” (ACS Omega, 2025)
Values after ≈ are worked out from the molar mass of the structure shown. Where two headings read alike, the source gives them in different places.

Columns and labels:
Aqueous solubility = type: physicochemical
HepG2 cells = assay: HepG2 cytotoxicity assay (resazurin, 72 h); type: cell-based, human; details: Homo sapiens, HepG2, 72 h; read-out: HepG2 pEC50 (converted)
Method in brief: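 HepG2 cells in MEM with glutamax and 10% FCS exposed to compounds for 72 h; resazurin (45 μM final) added for a further 4 h, fluorescence read at ex 528/em 590 nm. Data normalized to controls as % growth; pEC50 is the mean of duplicate curves.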

human sperm = assay: Reduction of sperm motility (RSM) high-throughput phenotypic assay; type: cell-based; details: Homo sapiens, reduction of progressive sperm motility relative to control
Method in brief: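 Pooled human sperm from at least 3 normozoospermic donors were prepared by discontinuous density gradient centrifugation and incubated for 3 h at 37 °C under noncapacitating conditions. About 10,000 spermatozoa (20 μL) were dispensed into each well of 384-well plates holding compound. A Yokogawa CV7000 recorded time-lapse images, and Trackpy tracking measured progressive motility as a percentage of in-plate DMSO controls.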

[1] = 10 min, 10 min incubation, reported <X (neg. log of top concentration) if largest reduction <70%, read-out: RSM pEC50 10 mins (converted)
[2] = 3 h incubation, reported <X if largest reduction <70%, read-out: RSM pEC50 3 hrs (converted)
[3] = 6 h incubation, reported <X if largest reduction <70%, read-out: RSM pEC50 6 hrs (converted)

| SMILES | solubility (Aqueous solubility) | EC50 (human sperm; [1]) | EC50 (human sperm; [2]) | EC50 (human sperm; [3]) | EC50 (HepG2 cells) |
| --- | --- | --- | --- | --- | --- |
| Cc1cc(Nc2ccccc2)n(-c2ccccc2)n1 [Compound 6c] | 81 µM (≈ 20.2 µg/mL) | > 31.6 µM | > 31.6 µM | > 31.6 µM | > 100 µM |
| Cc1cc(C)nc(-n2nc(C)cc2NC(=O)c2ccccc2)n1 [Compound 6d] | 15 µM (≈ 4.61 µg/mL) | > 31.6 µM | > 31.6 µM | > 31.6 µM | > 100 µM |
| Cc1cc(NC(=O)c2ccccc2)n(-c2ccccc2)n1 [Compound 6e] | 240 µM (≈ 66.6 µg/mL) | > 31.6 µM | > 31.6 µM | > 31.6 µM | > 100 µM |

Continued, in another order:

| solubility (Aqueous solubility) | EC50 (human sperm; [1]) | EC50 (human sperm; [2]) | EC50 (human sperm; [3]) | SMILES | EC50 (HepG2 cells) |
| --- | --- | --- | --- | --- | --- |
| 10 µM (≈ 2.89 µg/mL) | > 25.1 µM | > 25.1 µM | 1.58 µM | c1ccc(-c2cc(N3CCCCC3)c3ccccc3n2)nc1 [Compound 7a, 4-(Piperidin-1-yl)-2-(pyridin-2-yl)quinoline] | > 100 µM |
| 0.6 µM (≈ 0.173 µg/mL) | > 31.6 µM | > 31.6 µM | > 31.6 µM | c1ccc(-c2cc(N3CCCCC3)c3ccccc3n2)cc1 [Compound 7b] | > 100 µM |
| 57 µM (≈ 16.5 µg/mL) | > 31.6 µM | > 31.6 µM | > 31.6 µM | c1cncc(-c2cc(N3CCCCC3)c3ccccc3n2)c1 [Compound 7c] | > 100 µM |
| 140 µM (≈ 41.6 µg/mL) | > 31.6 µM | > 31.6 µM | > 31.6 µM | c1ccc2c(N3CCCCC3)cc(N3CCOCC3)nc2c1 [Compound 7d] | > 100 µM |
| 8.1 µM (≈ 2.39 µg/mL) | > 31.6 µM | > 31.6 µM | > 31.6 µM | c1ccc2c(N3CCCCC3)cc(N3CCCCC3)nc2c1 [Compound 7e] | > 100 µM |
| 220 µM (≈ 61.9 µg/mL) | > 31.6 µM | > 31.6 µM | > 31.6 µM | c1ccc2c(N3CCCCC3)cc(N3CCCC3)nc2c1 [Compound 7f] | 50.1 µM |
| 210 µM (≈ 65.2 µg/mL) | > 31.6 µM | > 31.6 µM | > 31.6 µM | CN1CCN(c2cc(N3CCCCC3)c3ccccc3n2)CC1 [Compound 7g] | 50.1 µM |
